The values below come from patent US12252524B2, “GIP/GLP1 co-agonist compounds” (Eli Lilly and Company, priority 2018, dated 2025).

For assay [1], the target named is human GLP-1 receptor (GLP-1R) (Homo sapiens, UniProt P43220). As to the kind of experiment: cAMP pharmacological functional assay in presence of casein, hGLP-1R. The class given is cell-based. The conditions noted are these: HEK293 cells expressing hGLP-1R, 0.1% Casein, geometric mean; read-out: hGLP1R cAMP Rel EC50 nM (SEM, n).
Assay [2] has as its target T1, gastric inhibitory peptide receptor (GIPR) (Homo sapiens, UniProt P48546).
T1 sequence (P48546 22-466): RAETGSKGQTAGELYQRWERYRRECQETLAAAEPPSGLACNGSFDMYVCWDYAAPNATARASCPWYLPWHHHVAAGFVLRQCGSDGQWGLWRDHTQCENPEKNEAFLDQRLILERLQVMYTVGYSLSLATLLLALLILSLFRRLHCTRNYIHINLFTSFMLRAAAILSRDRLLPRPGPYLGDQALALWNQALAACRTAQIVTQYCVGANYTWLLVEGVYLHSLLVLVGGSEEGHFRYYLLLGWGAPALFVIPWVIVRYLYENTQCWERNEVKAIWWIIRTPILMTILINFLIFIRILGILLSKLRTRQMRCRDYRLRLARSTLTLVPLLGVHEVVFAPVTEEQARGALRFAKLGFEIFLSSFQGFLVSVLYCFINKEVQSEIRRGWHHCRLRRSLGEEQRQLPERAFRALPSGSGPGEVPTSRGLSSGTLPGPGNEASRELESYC
Kind of assay: cAMP pharmacological functional assay in presence of casein, hGIPR. The class given is cell-based. The conditions noted are these: HEK293 cells expressing hGIPR, 0.1% Casein, geometric mean; read-out: hGIPR cAMP Rel EC50 nM (SEM, n).

Numbered stars: 1 amine (or outer) side, 2 acyl side, 3 side chain; on linkers, the order of the positions; unused ones are H or OH. Square brackets hold non-standard residues; d marks the D form. Side chains are listed from the residue outwards. Peptide text beside a SMILES is read from it. * marks the point of attachment. C20 diacid = O=C(O)CCCCCCCCCCCCCCCCCCC(=O)*; αMePhe(2-F) = C[C@](N)(Cc1ccccc1F)C(=O)O; γGlu = O=C(O)[C@H](CCC(=O)[*:2])N[*:1]; αMeL = CC(C)C[C@](C)(N)C(=O)O; Dap = NC[C@H](N)C(=O)O; AEEA = NCCOCCOCC(=O)O; Aib = CC(C)(N)C(=O)O

Sequence of human GLP-1 receptor (GLP-1R) (P43220 24-463): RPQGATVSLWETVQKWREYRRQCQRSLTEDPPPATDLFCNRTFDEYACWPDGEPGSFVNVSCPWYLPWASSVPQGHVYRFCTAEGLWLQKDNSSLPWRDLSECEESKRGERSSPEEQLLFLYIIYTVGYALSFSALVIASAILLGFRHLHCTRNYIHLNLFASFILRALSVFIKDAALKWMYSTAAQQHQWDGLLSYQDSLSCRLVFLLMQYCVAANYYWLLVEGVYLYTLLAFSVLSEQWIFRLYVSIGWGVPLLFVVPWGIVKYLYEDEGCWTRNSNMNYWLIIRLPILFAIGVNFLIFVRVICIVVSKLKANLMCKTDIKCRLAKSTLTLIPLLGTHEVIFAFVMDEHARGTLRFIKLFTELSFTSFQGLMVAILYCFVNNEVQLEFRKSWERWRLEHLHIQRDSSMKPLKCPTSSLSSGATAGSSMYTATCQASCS

Take `CC[C@H](C)[C@H](NC(=O)[C@H](CC(C)C)NC(=O)[C@H](Cc1ccc(O)cc1)NC(=O)[C@@H](CCC(=O)O)NC(=O)[C@@H](NC(=O)[C@H](Cc1ccccc1)NC(=O)[C@@H](NC(=O)C(C)(C)NC(=O)[C@H](CCC(N)=O)NC(=O)[C@H](C)NC(=O)[C@H](CCCCNC(=O)COCCOCCNC(=O)COCCOCCNC(=O)CC[C@H](NC(=O)CCCCCCCCCCCCCCCCCCC(=O)O)C(=O)O)NC(=O)[C@H](CN)NC(=O)[C@H](CC(=O)O)NC(=O)[C@H](CC(C)C)NC(=O)[C@](C)(CC(C)C)NC(=O)[C@@H](NC(=O)[C@H](CO)NC(=O)[C@H](Cc1c[nH]cn1)NC(=O)[C@H](CC(=O)O)NC(=O)[C@H](CO)NC(=O)[C@@H](NC(=O)[C@](C)(Cc1ccccc1F)NC(=O)[C@@H](NC(=O)CNC(=O)[C@H](CCC(=O)O)NC(=O)C(C)(C)NC(=O)[C@@H](N)Cc1ccc(O)cc1)[C@@H](C)O)[C@@H](C)O)[C@@H](C)CC)[C@@H](C)O)[C@@H](C)CC)C(=O)N[C@@H](CCC(=O)O)C(=O)NCC(=O)NCC(=O)N1CCC[C@H]1C(=O)N[C@@H](CO)C(=O)N[C@@H](CO)C(=O)NCC(=O)N[C@@H](C)C(=O)N1CCC[C@H]1C(=O)N1CCC[C@H]1C(=O)N1CCC[C@H]1C(=O)N[C@@H](CO)C(N)=O` [Example 173] (H-Y[Aib]EGT[αMePhe(2-F)]TSDHSI[αMeL]LD[Dap]K([AEEA-AEEA-γGlu-C20 diacid])AQ[Aib]TFI[dE]YLIEGGPSSGAPPPS-NH2): the values for the EC50 in assay [1] and in assay [2] were 1.23 nM and 0.586 nM, respectively.

Regarding `CC[C@H](C)[C@H](NC(=O)[C@H](CC(C)C)NC(=O)[C@H](Cc1ccc(O)cc1)NC(=O)[C@@H](CCC(=O)O)NC(=O)[C@@H](NC(=O)[C@H](Cc1ccccc1)NC(=O)[C@@H](NC(=O)C(C)(C)NC(=O)[C@H](CCC(N)=O)NC(=O)[C@H](C)NC(=O)[C@H](CCCCNC(=O)COCCOCCNC(=O)COCCOCCNC(=O)CCCCCCCCCCCCCCCCCCC(=O)O)NC(=O)[C@H](CCC(=O)O)NC(=O)[C@H](CC(=O)O)NC(=O)[C@H](CC(C)C)NC(=O)[C@](C)(CC(C)C)NC(=O)[C@@H](NC(=O)[C@H](CO)NC(=O)[C@H](Cc1c[nH]cn1)NC(=O)[C@H](CC(=O)O)NC(=O)[C@H](CO)NC(=O)[C@@H](NC(=O)[C@](C)(Cc1ccccc1F)NC(=O)[C@@H](NC(=O)CNC(=O)[C@H](CCC(=O)O)NC(=O)C(C)(C)NC(=O)[C@@H](N)Cc1ccc(O)cc1)[C@@H](C)O)[C@@H](C)O)[C@@H](C)CC)[C@@H](C)O)[C@@H](C)CC)C(=O)N[C@@H](CCC(=O)O)C(=O)NCC(=O)NCC(=O)N1CCC[C@H]1C(=O)N[C@@H](CO)C(=O)N[C@@H](CO)C(=O)NCC(=O)N[C@@H](C)C(=O)N1CCC[C@H]1C(=O)N1CCC[C@H]1C(=O)N1CCC[C@H]1C(=O)N[C@@H](CO)C(N)=O` [Example 174] (H-Y[Aib]EGT[αMePhe(2-F)]TSDHSI[αMeL]LDEK([AEEA-AEEA-C20 diacid])AQ[Aib]TFI[dE]YLIEGGPSSGAPPPS-NH2), the concentration for a half-maximal effect (EC50) (in general, the concentration that produces a half-maximal response) in assay [1] was found to be 0.472 nM; in assay [2] it was 0.217 nM.

As for `CC[C@H](C)[C@H](NC(=O)[C@H](CC(C)C)NC(=O)[C@H](Cc1ccc(O)cc1)NC(=O)[C@@H](CCC(=O)O)NC(=O)[C@@H](NC(=O)[C@H](Cc1ccccc1)NC(=O)[C@@H](NC(=O)C(C)(C)NC(=O)[C@H](CCC(N)=O)NC(=O)[C@H](C)NC(=O)[C@H](CCCCNC(=O)COCCOCCNC(=O)COCCOCCNC(=O)[C@@H](N)CCCCNC(=O)CCCCCCCCCCCCCCCCCCC(=O)O)NC(=O)[C@H](CCC(=O)O)NC(=O)[C@H](CC(=O)O)NC(=O)[C@H](CC(C)C)NC(=O)C(C)(CC(C)C)NC(=O)[C@@H](NC(=O)[C@H](CO)NC(=O)[C@H](Cc1c[nH]cn1)NC(=O)[C@H](CC(=O)O)NC(=O)[C@H](CO)NC(=O)[C@@H](NC(=O)C(C)(Cc1ccccc1F)NC(=O)[C@@H](NC(=O)CNC(=O)[C@H](CCC(=O)O)NC(=O)C(C)(C)NC(=O)[C@@H](N)Cc1ccc(O)cc1)[C@@H](C)O)[C@@H](C)O)[C@@H](C)CC)[C@@H](C)O)[C@@H](C)CC)C(=O)N[C@@H](CCC(=O)O)C(=O)NCC(=O)NCC(=O)N1CCC[C@H]1C(=O)N[C@@H](CO)C(=O)N[C@@H](CO)C(=O)NCC(=O)N[C@@H](C)C(=O)N1CCC[C@H]1C(=O)N1CCC[C@H]1C(=O)N1CCC[C@H]1C(=O)N[C@@H](CO)C(N)=O` (stereo partly drawn) [Example 175], the EC50 in assay [1] came to 1.11 nM; in assay [2] it was 0.0881 nM.
